Where “and” joins values, the source holds several entries; their conditions need not be identical. Equal values may be shown once.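 All cell lines were grown in 96-well plates and treated with compound for 48 hours. GI50 = concentration required for 50% inhibition of growth. TGI is the concentration that stops growth completely.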
Legend:
Test in all cases: NCI-60 cell line screen, 48 h
SK-MEL-2 melanoma = tested on: SK-MEL-2 melanoma
SNB-75 CNS = tested on: SNB-75 CNS
OVCAR-8 ovarian = tested on: OVCAR-8 ovarian
MDA-MB-435 = tested on: MDA-MB-435
DU-145 prostate = tested on: DU-145 prostate
UO-31 renal = tested on: UO-31 renal
HCC-2998 colon = tested on: HCC-2998 colon
RPMI-8226 leukemia = tested on: RPMI-8226 leukemia
TK-10 renal = tested on: TK-10 renal
EKVX NSCLC = tested on: EKVX NSCLC

## O=C1CC(c2cccc(Cl)c2)n2cccc21 (configuration not stated)
SK-MEL-2 melanoma
  TGI: > 100 µM
SNB-75 CNS
  TGI: > 100 µM
OVCAR-8 ovarian
  TGI: > 100 µM
MDA-MB-435
  TGI: > 100 µM
DU-145 prostate
  TGI: > 100 µM
UO-31 renal
  TGI: > 100 µM
HCC-2998 colon
  TGI: > 100 µM
RPMI-8226 leukemia
  TGI: > 100 µM
TK-10 renal
  TGI: > 100 µM

## Cc1ccc2c3c1O[C@H]1c4nc5ccccc5cc4C[C@@]4(O)[C@@H](C2)N(CC2CC2)CC[C@]314
SK-MEL-2 melanoma
  TGI: 35.5 µM
OVCAR-8 ovarian
  TGI: 22.6 µM
MDA-MB-435
  TGI: 23.5 µM
DU-145 prostate
  TGI: 69 µM
EKVX NSCLC
  TGI: 37.9 µM
UO-31 renal
  TGI: 22.2 µM
RPMI-8226 leukemia
  TGI: 25.4 µM
TK-10 renal
  TGI: 54.6 µM

## CN(C)c1ccc(/C=C2\N=C(c3ccccc3)N(c3nc4c(Cl)cc(Cl)cc4s3)C2=O)cc1
SK-MEL-2 melanoma
  TGI: > 100 µM
OVCAR-8 ovarian
  TGI: > 100 µM
MDA-MB-435
  TGI: 67.6 µM
DU-145 prostate
  TGI: > 100 µM
EKVX NSCLC
  TGI: > 100 µM
UO-31 renal
  TGI: > 100 µM
HCC-2998 colon
  TGI: > 100 µM
RPMI-8226 leukemia
  TGI: 77.5 µM
TK-10 renal
  TGI: > 100 µM

## CSc1n[n+](C)cc(N)c1N
SK-MEL-2 melanoma
  TGI: > 100 µM
SNB-75 CNS
  TGI: > 100 µM
OVCAR-8 ovarian
  TGI: > 100 µM
MDA-MB-435
  TGI: > 100 µM
EKVX NSCLC
  TGI: > 100 µM
UO-31 renal
  TGI: > 100 µM
HCC-2998 colon
  TGI: > 100 µM
RPMI-8226 leukemia
  TGI: > 100 µM
TK-10 renal
  TGI: > 100 µM

## COc1cccc(-c2cc(=O)c3cc(C)cnc3[nH]2)c1
SK-MEL-2 melanoma
  TGI: 7.45 µM
MDA-MB-435
  TGI: 0.0686 µM
DU-145 prostate
  TGI: > 100 µM
EKVX NSCLC
  TGI: > 100 µM
UO-31 renal
  TGI: 3.59 µM
HCC-2998 colon
  TGI: 2.67 µM
RPMI-8226 leukemia
  TGI: 29.6 µM
TK-10 renal
  TGI: > 100 µM

## COC1C(O)=C2C(=O)OC(C)(O)/C=C/C=C\C=C/C=C/C(c3ccccc3)NC(=O)/C=C/C=C/C=C/C=C/C2(C)C1O (configuration not stated)
SK-MEL-2 melanoma
  GI50: 0.0929 µM
  TGI: 0.235 µM and 0.318 µM
SNB-75 CNS
  GI50: 0.0145 µM
  TGI: 0.131 µM and 0.0786 µM
OVCAR-8 ovarian
  TGI: 0.0241 µM and 0.146 µM
MDA-MB-435
  TGI: 0.142 µM
DU-145 prostate
  TGI: 0.0769 µM and 0.123 µM
EKVX NSCLC
  GI50: 0.0624 µM
  TGI: 0.122 µM and 0.237 µM
UO-31 renal
  GI50: 0.0252 µM
  TGI: 0.0846 µM and 0.175 µM
HCC-2998 colon
  TGI: 0.146 µM and 0.048 µM
TK-10 renal
  TGI: 0.0668 µM

## O=C(CSc1nc2ccc(I)cc2c(=O)n1Cc1ccccc1)Nc1ccc(Br)cc1
SK-MEL-2 melanoma
  TGI: > 100 µM
SNB-75 CNS
  TGI: 36.6 µM
OVCAR-8 ovarian
  TGI: 36.2 µM
MDA-MB-435
  TGI: > 100 µM
DU-145 prostate
  TGI: > 100 µM
EKVX NSCLC
  TGI: 38.9 µM
UO-31 renal
  TGI: 0.382 µM
RPMI-8226 leukemia
  TGI: > 100 µM

## CC[C@H]1C=CCC[C@@]2(C[C@@H]3CC[C@@H]4[C@H](C(=O)OCCCCCCCCCCCCCCCC(=O)N(CCCN)C[C@@H](O)CCN)[C@]5(CCC[C@@H](C)O5)NC(=[N+]34)N2)O1
SK-MEL-2 melanoma
  TGI: 0.673 µM
OVCAR-8 ovarian
  TGI: 7.13 µM
MDA-MB-435
  TGI: 0.469 µM
DU-145 prostate
  TGI: > 10 µM
EKVX NSCLC
  TGI: 2.49 µM
UO-31 renal
  TGI: 1.64 µM
HCC-2998 colon
  TGI: 0.793 µM
RPMI-8226 leukemia
  TGI: 0.755 µM
TK-10 renal
  TGI: 4.52 µM

## CC(C)n1c(=O)c2nn3c(=O)n(C(C)C)c(=O)c3nn2c1=O
SK-MEL-2 melanoma
  TGI: > 100 µM
OVCAR-8 ovarian
  TGI: > 100 µM
MDA-MB-435
  TGI: > 100 µM
DU-145 prostate
  TGI: > 100 µM
EKVX NSCLC
  TGI: > 100 µM
HCC-2998 colon
  TGI: > 100 µM
TK-10 renal
  TGI: > 100 µM

## O=[N+]([O-])C(=C(NCc1ccccc1)NCc1ccccc1)C(Cl)=C(Cl)Cl
SNB-75 CNS
  TGI: 43.5 µM
OVCAR-8 ovarian
  TGI: > 100 µM
MDA-MB-435
  TGI: 46.7 µM
DU-145 prostate
  TGI: > 100 µM
EKVX NSCLC
  TGI: > 100 µM
UO-31 renal
  TGI: > 100 µM
HCC-2998 colon
  TGI: > 100 µM
RPMI-8226 leukemia
  TGI: 68.4 µM
TK-10 renal
  TGI: > 100 µM

## c1ccc(N=NNNc2ccc(-c3nc4ccccc4[nH]3)cc2)cc1
SK-MEL-2 melanoma
  TGI: 88.7 µM
SNB-75 CNS
  TGI: 88.7 µM
OVCAR-8 ovarian
  TGI: > 100 µM
MDA-MB-435
  TGI: > 100 µM
DU-145 prostate
  TGI: > 100 µM
EKVX NSCLC
  TGI: > 100 µM
UO-31 renal
  TGI: > 100 µM
RPMI-8226 leukemia
  TGI: 42.4 µM
TK-10 renal
  TGI: > 100 µM

## CC1CC[C@]2(C(=O)O)CCC3(C)C(=C2[C@H]1C)C=CC1[C@@]2(C)CC[C@H](O)C(C)(C)C2CC[C@]13C (some centres not stated)
SK-MEL-2 melanoma
  TGI: > 100 µM
SNB-75 CNS
  TGI: 73.1 µM
OVCAR-8 ovarian
  TGI: > 100 µM
MDA-MB-435
  TGI: > 100 µM
DU-145 prostate
  TGI: 42.4 µM
EKVX NSCLC
  TGI: > 100 µM
HCC-2998 colon
  TGI: 73.8 µM
RPMI-8226 leukemia
  TGI: > 100 µM
TK-10 renal
  TGI: > 100 µM

## NCCCCCCNc1cc(-c2cccc(OC(F)(F)F)c2)nc2ccc(N3CCCC3)cc12
SNB-75 CNS
  GI50: 1.57 µM
  TGI: 2.94 µM
MDA-MB-435
  GI50: 1.64 µM
  TGI: 3.01 µM
DU-145 prostate
  GI50: 1.55 µM
  TGI: 2.94 µM
EKVX NSCLC
  GI50: 1.64 µM
  TGI: 3.01 µM
TK-10 renal
  GI50: 1.88 µM
  TGI: 3.36 µM

## S=C1CC(c2ccc(Cl)cc2)Sc2ccccc2N1 (configuration not stated)
SNB-75 CNS
  TGI: > 10 µM
OVCAR-8 ovarian
  TGI: > 100 µM
MDA-MB-435
  TGI: > 100 µM
DU-145 prostate
  TGI: > 100 µM
EKVX NSCLC
  TGI: > 100 µM
UO-31 renal
  TGI: > 100 µM
RPMI-8226 leukemia
  TGI: > 100 µM
TK-10 renal
  TGI: > 100 µM

## O=C(c1ccco1)N(C(=S)N1CCN(c2ccccc2)CC1)c1ccccc1
SK-MEL-2 melanoma
  TGI: > 100 µM
SNB-75 CNS
  TGI: > 100 µM
OVCAR-8 ovarian
  TGI: > 100 µM
UO-31 renal
  TGI: > 100 µM
RPMI-8226 leukemia
  TGI: > 100 µM
TK-10 renal
  TGI: > 100 µM

## CC(=O)O[C@H]1/C(=C/c2ccc(N(C)C)cc2)C[C@H]2[C@@H]3CC=C4C[C@@H](N5CCCC5)CC[C@]4(C)[C@H]3CC[C@]12C
SK-MEL-2 melanoma
  TGI: > 100 µM
SNB-75 CNS
  TGI: > 100 µM
OVCAR-8 ovarian
  TGI: > 100 µM
DU-145 prostate
  TGI: > 100 µM
EKVX NSCLC
  TGI: > 100 µM
UO-31 renal
  TGI: > 100 µM
RPMI-8226 leukemia
  TGI: > 100 µM
TK-10 renal
  TGI: > 100 µM

## c1ccc2c(c1)SC1Sc3ccccc3[S+]21 (configuration not stated)
SK-MEL-2 melanoma
  TGI: > 100 µM
SNB-75 CNS
  TGI: > 100 µM
OVCAR-8 ovarian
  TGI: > 78.3 µM
MDA-MB-435
  TGI: 60.9 µM
DU-145 prostate
  TGI: > 76.3 µM
EKVX NSCLC
  TGI: 52.5 µM
UO-31 renal
  TGI: 50.9 µM
RPMI-8226 leukemia
  TGI: 49.9 µM
TK-10 renal
  TGI: 55.4 µM

## CO[P@]1(=O)O[C@@H](c2ccccc2)[C@H](O)[C@]1(O)c1ccccc1
SK-MEL-2 melanoma
  TGI: > 100 µM
SNB-75 CNS
  TGI: > 100 µM
OVCAR-8 ovarian
  TGI: > 100 µM
MDA-MB-435
  TGI: > 100 µM
DU-145 prostate
  TGI: > 100 µM
EKVX NSCLC
  TGI: > 100 µM
UO-31 renal
  TGI: > 100 µM
RPMI-8226 leukemia
  TGI: > 100 µM
TK-10 renal
  TGI: > 100 µM

## Cn1c(N/N=C/c2ccc(Cl)cc2)nc(-c2ccc(Cl)cc2)c(C#N)c1=O
SK-MEL-2 melanoma
  TGI: 33.1 µM
SNB-75 CNS
  TGI: 73.2 µM
OVCAR-8 ovarian
  TGI: 44.6 µM
MDA-MB-435
  TGI: > 100 µM
DU-145 prostate
  TGI: 46.1 µM
EKVX NSCLC
  TGI: 68.4 µM
UO-31 renal
  TGI: 33 µM
RPMI-8226 leukemia
  TGI: > 100 µM
TK-10 renal
  TGI: 76.3 µM

## O=c1[nH]cnc2c1ncn2[C@H]1CO[C@@H](CO)[C@@H]1O
SK-MEL-2 melanoma
  TGI: > 100 µM
SNB-75 CNS
  TGI: > 100 µM
MDA-MB-435
  TGI: > 100 µM
DU-145 prostate
  TGI: > 100 µM
EKVX NSCLC
  TGI: > 100 µM
UO-31 renal
  TGI: > 100 µM
HCC-2998 colon
  TGI: > 100 µM
RPMI-8226 leukemia
  TGI: > 100 µM
TK-10 renal
  TGI: > 100 µM

## Nc1cc(CO)cc(Nc2c3ccccc3nc3occc23)c1
SK-MEL-2 melanoma
  TGI: 73.9 µM
OVCAR-8 ovarian
  TGI: > 100 µM
MDA-MB-435
  TGI: 41.9 µM
DU-145 prostate
  TGI: > 100 µM
EKVX NSCLC
  TGI: > 100 µM
UO-31 renal
  TGI: > 100 µM
HCC-2998 colon
  TGI: > 100 µM
RPMI-8226 leukemia
  TGI: > 100 µM
TK-10 renal
  TGI: > 100 µM

## CCOC(=O)/C=C(/C(=O)OCC)n1cc(C)c(=O)n(Cc2cnnn2CCCCOC(C)=O)c1=O
SK-MEL-2 melanoma
  TGI: > 100 µM
SNB-75 CNS
  TGI: > 100 µM
OVCAR-8 ovarian
  TGI: 55.4 µM
MDA-MB-435
  TGI: 87.2 µM
DU-145 prostate
  TGI: > 100 µM
EKVX NSCLC
  TGI: 49.3 µM
UO-31 renal
  TGI: 36.6 µM
RPMI-8226 leukemia
  TGI: 46.2 µM
TK-10 renal
  TGI: 26.7 µM

## Cc1nnc2c3c(-c4ccccc4)c(-c4ccccc4)oc3nc(N(C)C)n12
SNB-75 CNS
  TGI: 72.4 µM
OVCAR-8 ovarian
  TGI: > 100 µM
MDA-MB-435
  TGI: > 100 µM
DU-145 prostate
  TGI: > 100 µM
EKVX NSCLC
  TGI: > 100 µM
UO-31 renal
  TGI: > 100 µM
HCC-2998 colon
  TGI: 60.5 µM
RPMI-8226 leukemia
  TGI: 82.3 µM
TK-10 renal
  TGI: > 100 µM

Source: PubChem BioAssay (NCI)
